Results taken from patent US8530435B2, “Brassinosteroids in treating prostatic hyperplasia and androgenic alopecia” (Grasses of Eden Ltd., priority 2008, dated 2013).

Legend:
human genital skin 5αR = test: 5α-reductase activity: reduction of testosterone to DHT in human foreskin tissue enzyme mixture, HPLC; type: biochemical; conditions: for Activity (% of control) / DHT/testosterone (final): initial testosterone 0.34 mM; for DHT/testosterone (final): control 0.1562
Protocol: 5α-reductase activity of soluble enzyme was measured by the reduction of testosterone at 37° C. during 40 min in a 3-ml enzyme mixture of human foreskin tissue or Bos taurus (Bovine) prostatic tissues, containing NADPH, with and without the test compound in parallel with analytical Ventranal standards for Testosterone and DHT. Tissue preparation and enzyme incubations were performed in accordance with Moore et al. (see below) with modifications. All steps were carried out at 4° C. Prostate or foreskin tissue was dissected and homogenized in ice-cold homogenization phosphate buffer at pH 8.0. The homogenate was centrifuged and the resulting cell free supernatant was stored in aliquots at −80° C. Inhibition of the steroid 5α-reductase was measured by incubating the enzyme and testosterone in the presence of a plant extract or a natural compound. […] The ratio of the peak areas gave quantitative measure of the inhibition [Neeman I. et al.: Urol.
The activity of 5α-reductase (EC: 1.3.99.5) was checked in human foreskin tissue and in bovine prostatic tissues. Pure compound and plant extracts were tested for their 5α-reductase inhibition activity, in various experiments.

mice = conditions: orally, mice (female); cited from earlier work
Tetrahymena pyriformis = conditions: over seven generations; cited from earlier work
[1] = cited from earlier work
fish = conditions: in vivo; cited from earlier work
rats = conditions: cited from earlier work
[2] = test system: Salmonella typhimurium TA 1534, TA 1537, TA 1950, TA 98, TA 100; conditions: with or without metabolic activation; cited from earlier work
skin = conditions: in vivo; cited from earlier work
[3] = test system: mucous membranes of rabbits' eyes; conditions: concentrations of 0.2%; cited from earlier work
mice CBAB1/6 = conditions: cited from earlier work

Structure (SMILES)	Activity (% of control) (human genital skin 5αR; inhibitor 10^−6M)	DHT/testosterone (final) (human genital skin 5αR; inhibitor 10^−6M)	LD50 (mice)	genetic safety / mutagenic activity (Tetrahymena pyriformis)	toxicity and cumulative effect ([1]; acute, subacute, and chronic experiments)	adaptogenic effect (increasing adaptive ability of the population) ([1]; prolonged experiments)	toxicity ([1]; prolonged experiments)	fish toxicity (fish)	stimulative and toxico-protective properties in fish (fish)	LD50 (rats; orally and dermally, rats (male/female))	Dermal toxicity (rats; rat, in vivo)	Ames test for mutagenic activity [2]	skin irritation (skin)	human skin reductase activity inhibited (human genital skin 5αR; as in Table 1 (10^−7M)) [%]	Activity (% of control) (human genital skin 5αR; inhibitor 10^−7M)	DHT/testosterone (final) (human genital skin 5αR; inhibitor 10^−7M)	irritation of mucous membranes of eyes [3]	spontaneous mutations in micronuclear or chromosome abberation tests (mice CBAB1/6)
CC(C)(C)NC(=O)[C@H]1CC[C@H]2[C@@H]3CC[C@H]4NC(=O)C=C[C@]4(C)[C@H]3CC[C@]12C [Finasteride, reference compound]	32.7 % of control	0.0607																
CC(C)[C@@H](C)[C@@H](O)[C@H](O)[C@@H](C)[C@H]1CC[C@H]2[C@@H]3COC(=O)[C@H]4C[C@H](O)[C@H](O)C[C@]4(C)[C@H]3CC[C@]12C [Epibrassinolide-24]			more than 1000 mg/kg	absence of mutagenic activity	low toxicity and very little cumulative effect	pronounced adaptogenic effect	no toxicity	no negative effects	pronounced stimulative and toxico-protective properties	more than 2000 mg/kg	more than 2000 mg/kg	negative	did not irritate the skin	74	25.9 % of control	0.0404	did not irritate	neither epibrassinolide-24 nor the liquid formulation caused spontaneous mutations
